We go through one molecule from patent US20210106566A1, “PHARMACEUTICAL COMPOSITION FOR TREATING AND/OR PREVENTING PERIPHERAL NEUROPATHY OR SPINAL CORD INJURY” (NATIONAL UNIVERSITY CORPORATION NAGOYA UNIVERSITY, priority 2015, published 2021).

One experiment has as its system primary motor neurons. The experiment in a line: Neurite outgrowth in primary spinal cord motor neurons. The class given is cell-based, mouse. Here is the method: Primary cultured mouse embryonic spinal cord motor neurons were isolated from spinal cord embryo of C57BL/6J mouse on 13.5th day of embryonic stage (E13.5). Solutions of zonisamide in DMSO were prepared at concentrations from 200 μmol/L to […] and then added to the culture medium to obtain the final concentration of zonisamide from 1 μmol/L to 20 μmol/L. The culture medium contained 0.5% DMSO whether or not it contained zonisamide. The cells were seeded at 4.0×10^3 cells/cm^2 in a 96-well plate (Asahi Techno Glass) coated with poly-L-lysine and laminin and maintained in Sumilon neuron culture medium (Sumitomo Bakelite). After incubation for 2 days, the cells were fixed in PBS with 4% […] at ordinary temperature for 15 minutes. The cells were washed with PBS once, blocked with PBS containing 2% goat serum and 0.1% Triton-X, and immunostained with mouse anti-tau-1 monoclonal antibody (1:500, MAB3420, Millipore) and Alexa Fluor 555-conjugated goat anti-mouse secondary antibody (1:1000, Life Technologies). Neurites were automatically analyzed on ArrayScan VTI HCS Reader. The neurite length and the number of nerve branch points were quantified by evaluating the longer 200 neurites. The ratio of neurite-bearing cells was determined by counting cells having a neurite length of 25 micron or more in each well.

The test system of experiment [1] is Bdnf, Ngf, Ntf4, Ntrk1, Ntrk2, Map2, Mapt, and Gap43. The experiment in a line: Real-time RT-PCR of genes associated with neurite outgrowth in primary motor neurons. The class given is cell-based, mouse. From the text: Total RNA was isolated, using Trizol (Thermo Fisher Scientific), from primary motor neurons cultured with 0, 1, or 10 μmol/L zonisamide. Similarly, total RNA was isolated from sciatic nerve segments with a length of 3 mm or from tibialis anterior muscle. Single-stranded cDNA was synthesized using ReverTra Ace (Toyobo). The mRNA expression levels of Bdnf, Ngf, Ntf4, Ntrk1, Ntrk2, Map2, Mapt, and Gap43 were quantified using LightCycler 480 Real-Time PCR (Roche) and SYBR Green (Takara). The mRNA levels were normalized with the expression level of Gapdh.
In general terms: In qPCR the cycle at which signal appears reflects the starting amount.

Experiment [2] has as its system severely crushed spinal cord model mice. As to the kind of experiment: Severely crushed spinal cord model mice: motor function with BMS score. To be noted: for BMS score: 30 mg/kg/day intragastrically. The class given is in vivo, mouse. An excerpt:
Female C57BL/6J mice (8 weeks old; 19.5-22.0 g) were purchased from Charles River. The female C57BL/6J mice were anesthetized by intraperitoneally administering pentobarbital sodium and underwent back incision under a sterile condition to perform laminectomy at the 10th thoracic vertebra. The spinal cord was crushed at 100 kdyn using a tip with a diameter of 1.35 mm on IH Spinal Cord Impactor. After the occurrence of hematoma in the spinal cord was confirmed under a microscope, the wound was closed and 1 ml of physiological saline was subcutaneously injected into the posterior neck region to prevent dehydration. The mice with spinal cord injury were separated into two groups in a blinded fashion. Zonisamide was diluted with olive oil (solvent) to 3 mg/mL and intragastrically administered to mice in one group at 30 mg/kg/day using a disposable probe needle (flexible type, Fuchigami) for consecutive days from the day of surgery. Mice in the other group received only the solvent using a similar procedure for consecutive days. One day after surgery, motor function of mice in both groups was assessed using BMS score (Basso mouse scale; Li et. al. J Neurosurg Spine 4: 165-173 (2006)) in a blinded fashion to select the mice with BMS score of 1 or lower and consider them as severely crushed spinal cord model mice. The mice received 200 mL of water containing trimethoprim (16 mg)/sulfamethoxazole (80 mg) from a feeder to prevent infection for 3 days after surgery. BMS score is scored by rating ankle movement, weight support, stepping, coordinated motion of forelimbs and hindlimbs (coordination), hindlimb position in walking, trunk stability, and tail position, and ranges from 0 to 9; score 0 corresponds to complete paralysis of hindlimb and score 9 corresponds to normal motion; more specifically, BMS score is described as follows: 0: No ankle movement. 1: Slight ankle movement (less than 50% of the range of motion). 2: Extensive ankle movement (equal to and greater than 50% of the range of motion). 3: Plantar placing of the paw or occasional dorsal stepping. 4: Occasional planter stepping with weight support (equal to and less than 50% of forward movement). 5: Frequent or consistent planter stepping (equal to and greater than 50% of forward movement), no coordination of limbs; or frequent or consistent planter stepping, some coordination of limbs, hindlimb paws rotated at initial contact and lift off. 6: Some coordination of limbs, hindlimb paws parallel at initial contact and rotated at lift off; or mostly coordinated, hindlimb paws rotated at initial contact and lift off. […] BMS scores were measured at days 1, 3, 7, 14, 21, and 28 after surgery in a blinded fashion (FIG. 14).

Setting [3] is: dose dependency, 1 μmol/L to 20 μmol/L, FIG. 1.
[4] abbreviates: 2 and 3 days after zonisamide addition.

For `NS(=O)(=O)Cc1noc2ccccc12` [Zonisamide, 3-sulfamoylmethyl-1,2-benzisoxazole], in the experiment on primary motor neurons (culture for 48 hours, tau staining), the “neurite extension of primary motor neurons (screening of the 16 drugs)” value is given as “able to extend neurites”. In the experiment on primary motor neurons (setting [3]), the “axonal growth (average neurite length) in primary motor neurons” value was “dose-dependent axonal growth” and the “number of branch points in axons of primary motor neurons” value is “dose-dependent increase”. The “ratio of neurite-bearing cells in primary motor neurons” value with primary motor neurons (neurite length of 25 micron or more, FIG. 1) is recorded as “not increased”. Besides, in experiment [1], the “mRNA level of GAP43” value is “not increased until day 3”, the “mRNA level of MAP2” value is recorded as “not increased until day 3”, the “mRNA level of Mapt” value is on record as “not increased until day 3” and the “mRNA level of Ntrk1” value is on record as “increased”. Further, in experiment [1], the “mRNA level of Ntrk2” value is recorded as “increased”. Moreover, in experiment [1] (setting [4]), the “mRNA level of BDNF” value was “increased”, the “mRNA level of NGF” value is reported as “increased” and the “mRNA level of NTF4” value is reported as “increased”. In experiment [2] (day 14 after surgery), the BMS score is recorded as 3.2±0.3. The molecule also came in with a BMS score in experiment [2] (day 21 after surgery) of 3.2±0.4. The BMS score in experiment [2] (day 28 after surgery) is 3.7±0.4. The “BMS score compared to the control group” value in experiment [2] (since day 14 after surgery) is listed as “significantly higher”.
